Results from patent US20060205826A1, “Method of using carotenoids in the prevention of cognitive decline and for other neuroprotection functions” (priority 2005, published 2006).

How the values were obtained:
[1] = tested on: MDA, a lipid peroxidation product; assay: MDA concentration by liquid chromatography in serum, eye and hippocampus of diabetic mice; assay type: in vivo
Experimental: Male albino mice were used throughout the study, housed in a environmentally regulated room on a dark-light cycle of 12 hours with free access to food and water. Principles of laboratory animal care (NIH publication no. 85-23, revised 1985) were followed, as well as specific Spanish regulations. Animals were made diabetic with a single subcutaneous injection of 200 mg alloxan/kg body weight (66 mg/ml) in 0.1 M citrate buffer, pH 4.5, at day 0 of the experiment. Control mice were injected with the same volume of vehicle also at day 0 of the experiment.
Mice were identified as diabetic on the basis of blood glucose levels (higher than 16 mM at least 4 days after alloxan treatment). Animals were divided into subgroups as required by the experiment (control, control+lutein, diabetic, diabetic+lutein, diabetic+insulin, diabetic+insulin+lutein). […] Insulin treated animals were injected daily with 500 mU/g body weight since day 4 until the end of the experiment. Mice were killed by cervical dislocation on day 14, and hippocampus and retina were removed and homogenized in pre-chilled 0.2 M potassium phosphate buffer, pH 7.0. These homogenates were used to assay protein, GPx activity and MDA and GSH concentrations. Samples were kept frozen (−80° C.) until biochemical assays were performed. Blood was taken from the tail vein daily to assay blood glucose levels. Glycated hemoglobin was determined in blood samples obtained by heart puncture immediately before killing the animals.
MDA, a lipid peroxidation product, concentration was measured by liquid chromatography according to a modification of the method of Richard et al. (1992) as previously described (Romero et al., 1998). Briefly, 0.1 ml of sample (or standard solutions prepared daily from 1,1,3,3-tetramethoxypropane) and 0.75 ml of working solution (thiobarbituric acid 0.37% and perchloric acid 6.4%; 2/1, v/v) were mixed and heated to 95° C. for 1 h. After cooling (10 min in ice water bath), the flocculent precipitate was removed by centrifugation at 3,200×g for 10 min. The supernatant was neutralized and filtered (0.22 μm) prior to injection on an ODS column 5 μm column (250×4.6 mm). Mobile phase consisted in 50 mM phosphate buffer (pH 6.0): methanol (58:42, v/v). Isocratic separation was performed with 1.0 ml/min flow (HPLC System 325, Kontron) and detection at 532 nm (UV/VIS HPLC Detector 332, Kontron). Calibration curves were run daily.

GPx activity [2] = assay: GPx activity in eye and hippocampus homogenate of diabetic mice; assay type: in vivo
Experimental: Male albino mice were used throughout the study, housed in a environmentally regulated room on a dark-light cycle of 12 hours with free access to food and water. Principles of laboratory animal care (NIH publication no. 85-23, revised 1985) were followed, as well as specific Spanish regulations. Animals were made diabetic with a single subcutaneous injection of 200 mg alloxan/kg body weight (66 mg/ml) in 0.1 M citrate buffer, pH 4.5, at day 0 of the experiment. Control mice were injected with the same volume of vehicle also at day 0 of the experiment. Mice were identified as diabetic on the basis of blood glucose levels (higher than 16 mM at least 4 days after alloxan treatment). Animals were divided into subgroups as required by the experiment (control, control+lutein, diabetic, diabetic+lutein, diabetic+insulin, diabetic+insulin+lutein). […] Insulin treated animals were injected daily with 500 mU/g body weight since day 4 until the end of the experiment. Mice were killed by cervical dislocation on day 14, and hippocampus and retina were removed and homogenized in pre-chilled 0.2 M potassium phosphate buffer, pH 7.0. These homogenates were used to assay protein, GPx activity and MDA and GSH concentrations. Samples were kept frozen (−80° C.) until biochemical assays were performed. Blood was taken from the tail vein daily to assay blood glucose levels. Glycated hemoglobin was determined in blood samples obtained by heart puncture immediately before killing the animals. GPx activity was assayed as reported by Lawrence et al. (1978) towards hydrogen peroxide. The disappearance of NADPH was followed spectrophotometrically at 340 nm. The reaction mixture consisted of 240 mU/ml of glutathione disulfide reductase, 1 mM GSH, 0.15 mM NADPH in 0.1 M potassium phosphate buffer, pH 7.0, containing 1 mM EDTA and 1 mM sodium azide; 50 μl sample were added to this mixture and allowed to equilibrate at 37° C. for 3 min. reaction was started by the addition of 1.5 mM hydrogen peroxide to adjust the final volume of the assay mixture to 1 ml.

GPx activity [3] = details: diabetic animals; Miranda et al., 2004; cited from earlier work
[4] = lutein 100 mg/kg p.o. or insulin 500 mU/g body weight s.c. on days 4-13

CC1=C[C@H](O)CC(C)(C)[C@H]1/C=C/C(C)=C/C=C/C(C)=C/C=C/C=C(C)/C=C/C=C(C)/C=C/C1=C(C)C[C@@H](O)CC1(C)C [Lutein]
MDA levels in hippocampus ([1]; lutein 0.2 mg/kg p.o. or insulin 500 mU/g body weight s.c. on days 4-13): restored
MDA levels in hippocampus ([1]; lutein 0.2 mg/kg p.o. or insulin 500 mU/g body weight s.c. on days 4-13, listed as lutein): able to prevent this effect
MDA levels in ocular tissue [1, 4]: restored
MDA levels in serum [1, 4]: restored
MDA levels in ocular tissue ([1]; lutein 100 mg/kg p.o. or insulin 500 mU/g body weight s.c. on days 4-13, listed as lutein): able to prevent this effect
retinal GPx activity (GPx activity [2]; eye homogenate without lens, lutein 100 mg/kg p.o. or insulin 500 mU/g s.c. on days 4-13): protected
GPx activity in hippocampus homogenate (GPx activity [2]; lutein 0.2 mg/kg p.o. or insulin 500 mU/g s.c. on days 4-13): restored
glutathione peroxidase activity of the retinas (GPx activity [3]): restored
